Experimental findings from PubChem BioAssay (NCI) are described below.

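Following 48 hours of exposure in 96-well plates, responses at five concentrations were used to interpolate endpoints linearly. TGI: concentration producing complete growth inhibition.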

Holding throughout (experiment): growth of human tumour cells (NCI), 48 h
Test [1] deals with M14 melanoma.
Test [2] relates to BT-549 breast.
Test [3] concerns SNB-19 CNS.
Test [4] concerns UACC-257 melanoma.
Test [5] deals with UACC-62 melanoma.
In test [6] the test system is NCI-H522 lung.
The subject of test [7] is 786-0 renal.
Test [8] deals with SNB-75 CNS.
In test [9] the test system is RXF 393 renal.
Test [10] relates to NCI/ADR-RES ovarian.
Test [11] deals with SF-539 CNS.
In test [12] the test system is HL-60(TB) leukemia.
The test system of test [13] is NCI-H226 lung.
The test system of test [14] is MCF7 breast.
For test [15], the system named is NCI-H460 lung.
Test [16] concerns SK-OV-3 ovarian.
For test [17], the system named is HCT-15 colon.
Test [18] concerns EKVX NSCLC.

For the molecule `C/C(=N/O)c1cccc(Nc2nc3ccc(Cl)cc3c3[nH]c4ccccc4c23)c1`, the TGI in test [1] was determined as 3.54 µM; in test [2], 11.6 µM; in [3], 12 µM; in [4], 12.1 µM; in [5], 3.94 µM; in test [6], 3.26 µM. Moreover, the TGI in test [7] is 5.22 µM; in test [8], 3.36 µM; in [9], 3.27 µM; in test [10], 6.26 µM; in [11], 12.3 µM; in [12], 6.78 µM. Further, the TGI was determined as 9.82 µM in test [13]; 2.75 µM in test [14]; 4.29 µM in test [15]; 13.6 µM in test [16]; 5.03 µM in test [17].
For `COc1ccc(C(c2c[nH]c3ccc(Br)cc23)c2c[nH]c3ccc(Br)cc23)cc1`, the TGI worked out at 0.7 µM in test [1]; 3.16 µM in test [2]; 1.76 µM in [3]; 0.947 µM in [4]; 0.689 µM in [5]; 0.397 µM in test [6]. Moreover, the TGI in test [7] is 1.07 µM; in test [8] it was 1.54 µM; in [9], 0.578 µM; in test [10], 4.34 µM; in test [11] it was 2.06 µM; in [12], 0.346 µM. Besides, the TGI in test [13] was determined as 1.7 µM; in test [14], 0.765 µM; in test [15], 0.361 µM; in test [16], 2.58 µM; in [18] it was 1.49 µM; in [17] it was 0.624 µM.
As for `N#Cc1sc2c(c1OC(=O)c1cccs1)c(=O)n(-c1ccccc1)c(=S)n2-c1ccccc1`, the TGI is 38.2 µM in test [1]; 77.8 µM in test [2]; more than 100 µM in test [3]; more than 100 µM in test [4]; 35.2 µM in test [5]; 34.3 µM in test [6]. The TGI in test [7] was 90.6 µM; in test [8], more than 100 µM; in test [9] it was 31.9 µM; in test [10], 50.1 µM; in test [11] it was 49.6 µM; in test [12], 47.5 µM. The TGI in [13] is 43.4 µM; in test [14], 49.7 µM; in [15], more than 100 µM; in test [16], more than 100 µM; in test [18], 89.9 µM; in test [17] it was 40 µM.
As for `O=C1c2ccccc2C2=Nc3ccncc3CN12`, the TGI in test [1], in test [2], in [3], in test [4], in test [5] and in test [6] was more than 100 µM in each case. For the same molecule, the TGI in test [7], in test [8], in [9], in test [10], in test [11] and in test [12] was more than 100 µM throughout. For the same molecule, the TGI in [13], in test [14], in [15], in [16], in [18] and in test [17] was more than 100 µM in each case.
Take `CC1(C)CCCCCCC2OC2CCCCCC(C)(C)C1=O` (centres undefined): the TGI in [1] is more than 100 µM; in [2], more than 76.6 µM; in test [3], more than 100 µM; in test [4], more than 93.5 µM; in test [5], more than 100 µM; in test [6], more than 80.4 µM. For the same molecule, the TGI was more than 100 µM in [7]; more than 100 µM in test [8]; 49.5 µM in test [9]; more than 88.2 µM in [10]; more than 100 µM in test [11]; 57 µM in test [12]. Moreover, the TGI in [13] was more than 94.4 µM; in test [14], more than 73.3 µM; in test [15], more than 100 µM; in test [16] it was more than 100 µM; in test [18], more than 100 µM; in test [17], more than 100 µM.
As to `NC(=O)C(c1ccccc1)N1OC2C(=O)N(c3cccc4ccccc34)C(=O)C2C1c1c2ccccc2c(Cl)c2ccccc12` (centres undefined), the TGI in test [1] turned out to be 15.8 µM; in [2], 22 µM; in test [3], 18.9 µM; in test [4], 15.7 µM; in test [5] it was 13.8 µM; in test [6] it was 44.3 µM. In addition, the TGI in test [7] worked out at 21.4 µM; in test [8] it was 20.4 µM; in [9] it was 16.8 µM; in test [10], 28.2 µM; in [11] it was 12.9 µM; in test [12] it was 11.2 µM. The TGI in [13] is 13.5 µM; in test [14] it was 11.2 µM; in test [15] it was 18.6 µM; in [16], more than 50 µM; in test [18] it was 30 µM; in [17] it was 16.4 µM.
`O=[N+]([O-])c1ccc2[nH]ncc2c1Cl`: the TGI is 89.7 µM in test [2]; more than 100 µM in [3]; more than 100 µM in [4]; more than 100 µM in test [5]; 16.5 µM in test [6]; more than 100 µM in test [7]. Further, the TGI in [8], in test [9], in test [10], in test [11], in [12] and in test [13] was more than 100 µM in each case. Besides, the TGI was more than 100 µM in test [14]; more than 100 µM in test [15]; more than 100 µM in test [16]; 53.8 µM in test [18]; more than 100 µM in test [17].
